Measurements: patent publication US20250303006A1, “BIOCOMPATIBLE ANTISEPTIC COMPOSITION CONTAINING 9-HYDROXYCALABAXANTHONE AND/OR RELATED XANTHONES” (UNIVERSITAT DE LES ILLES BALEARS, priority 2022, published 2025)

How the values were obtained:
[1] = test system: S. pyogenes; assay: S. pyogenes culture and proliferation assay; type: cell-based, Streptococcus pyogenes; conditions: 0.0002% HCX, 24 h
Description: (§1) S. pyogenes was grown from frozen stocks in Tryptic Soy Broth (TSB) (Scharlab), at 37° C. under aerobic conditions in an orbital shaker (180 rpm). After overnight incubation, 1 mL of bacterial suspensions were incubated with different concentrations of CHX (0.01, 0.005, 0.003, 0.001, 0.0001%) and HCX (0.003, 0.002, 0.001, 0.0002, 0.00002%) for 24 hours at 37° C. under aerobic conditions in an orbital shaker (180 rpm). Bacterial suspension without treatment served as negative control (C−). The optical density (OD) was measured at 600 nm at 0 h and 24 h to determine bacterial proliferation (PowerWave Ht). The bacterial growth rate (μ) was calculated during the exponential growth phase following the equation ln ODt−ln OD0=μ×(t−t0) (n=4). The live/Dead ratio of bacteria was determined using the LIVE/DEAD BacLight bacterial viability kit (Invitrogen), following the manufacturer's instructions. The assays were carried out in triplicate.

[2] = test system: S. mutans; assay: S. mutans culture and proliferation assay; type: cell-based, Streptococcus mutans; conditions: 5 h
Description: as §1, with “mutans CECT 479 (obtained from The Spanish Type Culture Collection (CECT), University of Valencia)” for “pyogenes”, “BHI broth” for “Tryptic Soy Broth (TSB)”, “5” for “24”, “(n=3).” for “(n=4).”, “triplicate, with two replicates at each condition (n=3).” for “triplicate.”
The bacteria S. mutans was cultured and treated with different commercial periodontal gels and HA formulated with 0.1%, 0.05%, and 0.01% HCX and aMG for 24 h. The gels were tested at a concentration of 5% (v/v), and the experiment was run like in experiment 8 of section 8.1.

[3] = test system: S. epidermidis; assay: S. epidermidis culture and proliferation assay; type: cell-based, Staphylococcus epidermidis
Description: S. epidermidis 4814 (CECT, Valencia, Spain) were grown from frozen stocks in Luria-Bertani (LB) broth (Scharlab, Sentmenat), at 37° C. under aerobic conditions in an orbital shaker (180 rpm). After an overnight incubation, 1 mL of bacterial suspensions were incubated with different concentrations of HCX (0.003, 0.002, 0.001, 0.0002, 0.00002%) for 24 hours at 37° C. under aerobic conditions in an orbital shaker (180 rpm). Bacterial suspension without treatment served as negative control, and CHX at 0.001% served as positive control for bacterial growth inhibition. The optical density (OD) was measured at 600 nm at 0 h, 10 h and 24 h to determine bacterial proliferation (PowerWave Ht, Biotek instruments, Winooski, VT, USA). Bacterial growth rate (μ) was calculated during the exponential growth phase following the equation ln ODt−ln OD0=μ×(t−t0). Live/Dead ratio of bacteria was determined using the LIVE/DEAD BacLight bacterial viability kit (Invitrogen, Thermo Fisher Scientific, Waltham, MA, USA), following manufacturer's instructions. The assays were carried out in triplicate, with two replicates at each condition (n=6). […]

[4] = test system: P. gingivalis; assay: P. gingivalis culture and proliferation assay (growth rate, live/dead ratio); type: cell-based, Porphyromonas gingivalis; conditions: 0.002% HCX, 10 h
Description: Bacterium P. gingivalis (ATCC 33277TM, Manassas, VA) was cultured in brain heart infusion (BHI) broth (Scharlab, Barcelona, Spain), supplemented with 0.5 g/l of L-cysteine hydrochloride (Thermo Fisher Scientific), 5.0 mg/I of hemin (Thermo Fisher Scientific), and 1.0 mg/I of vitamin K (Thermo Fisher Scientific) in anaerobic conditions (10% H2, 10% CO2, and 80% N2) achieved with an anaerobiosis sachet and jar (Oxoid Anaerogen™, Thermo Fisher Scientific) at 37° C. for 24-72 h.
Bacteria P. gingivalis were cultured from existing frozen bacteria in BHI broth. After one night of incubation, 1 ml of bacterial suspension (˜3×10^8 bacteria/ml) was treated with different concentrations of HCX (0.00002, 0.0002, 0.002%) for 10 hours in anaerobic conditions (10% H2, 10% CO2, and 80% N2) at 37° C. At regular intervals (0 h and 10 h), optical density (OD) was measured at 600 nm to determine bacterial proliferation (PowerWave Ht, Biotekinstruments, Winooski, VT). […] The proportion of living bacteria/dead bacteria was determined using the LIVE/DEAD BacLight bacterial viability kit (Invitrogen, Thermo Fisher Scientific, Waltham, MA, USA), following the manufacturer's instructions.
Two different concentrations of HA formulated with HCX (0.025 and 0.05%) were used in the present study. […]

`COc1c(O)cc2oc3cc4c(c(O)c3c(=O)c2c1CC=C(C)C)C=CC(C)(C)O4` [HCX, 9-hydroxycalabaxanthone] was tested, and the bacteria eliminated [1] was 100%, the bacteria eliminated ([2]; 0.0002% HCX) was 70% and the bacteria eliminated ([2]; 0.001% HCX) was 90%. For the same compound, the bacteria eliminated ([3]; 0.001% HCX, 10 h) was 100%, the bacteria eliminated ([3]; 0.003% HCX, 24 h) was 80% and the bacteria eliminated [4] was 100%.
